{"source": "patent US20190161516A1", "about": "“PROTEASOME INHIBITORS” (University of Kentucky Research Foundation, priority 2017, published 2019)", "key": {"X/β5": {"target": "T1, X/β5 (Homo sapiens, UniProt P20618+P28074)", "T1 construct": "purchased R&D Systems", "test": "Proteasome activity assay, purified 20S proteasome, Ac-WLA-AMC", "format": "biochemical", "procedure": "Purified 20S human proteasomes (CP and IP, R&D Systems) were used to assess the in vitro inhibition of proteasome catalytic activity by LMP2 inhibitors. In our 96-well format assays involving a 100 μL total volume, 20S proteasomes (0.5 μg/mL) were incubated with inhibitors or reference compounds (e.g., carfilzomib) in assay buffer (20 mM Tris-HCl, 0.5 mM EDTA, 0.035% SDS) at room temperature for 30 min. Reactions were initiated by the addition of fluorogenic substrates containing the AMC (7-amino-4-methylcoumarin) group. Specifically, the following substrates were used: Suc-LLVY-AMC (CT-L activity, 100 μM), Ac-PAL-AMC (LMP2, 100 μM), Ac-WLA-AMC (β5, 20 μM), Ac-nLPnLD-AMC (β1,100 μM), Ac-RLR-AMC (β2/2i, 20 μM), and Ac-ANW-AMC (β5i, 100 μM). The fluorescence of liberated AMC was measured over a period of 90 min at 360 and 460 nm on a SpectraMax M5 fluorescence plate reader (Molecular Devices). For the proteasome activity of brain tissues isolated from AD mice, tissues were homogenized in RIPA buffer (50 mM Tris Cl, pH 7.4, 150 mM NaCl, 5 mM EDTA, 1% Nonidet P-40, 1% sodium deoxycholate, 0.1% SDS, 1% aprotinin, 50 mM NaF) and sonicated. Samples were centrifuged for 40 min at 14,000×g (4° C.). Protein concentration was determined using the Bradford Assay according to the manufacturer's protocol. […] Fluorescence was recorded for 90 min using a Synergy-HT (Bio Tek) plate reader."}, "[1]": {"test_system": "APPsw transgenic mouse (Tg2576) and LPS-induced mice (ICR strain)", "test": "Morris water maze test in AD mouse models", "format": "in vivo", "conditions": "FIG. 12A-12D", "procedure": "These two compounds were used to investigate the impacts of LMP2 inhibition on cognitive deficits in two animal models of human Alzheimer's disease (AD). In these AD models, AD develops by Aβ deposition (APPsw transgenic mouse) or lipopolysaccharide (LPS)-induced neuroinflammation. For the APPsw transgenic model, also known as Tg2576, 10-month old APPsw mice were treated i.p. with LMP2 inhibitors twice a week for 3 weeks. […] Once treatments were finished, Morris water maze test was performed. All mice were trained for three times a day for 5 days before the test. The escape latency and distance traveled were recorded on a daily-basis over a 5-day period. […] This supports that the efficacy of LMP2 inhibitors is mediated through LMP2 inhibition. One day after the completion of Morris water maze test, the ability of mouse to maintain memory was evaluated by probe trials. […] Sequentially, a step-through latency test was performed a day after the probe trial. […]\nThe learning trials were conducted over 5 days, with 4 trials per day, with three randomized starting points. […] Swimming pattern of each mouse was monitored and recorded by a camera mounted above the center of the pool, and the escape latency, escape distance and swimming speed were assessed by the SMART-LD program (Panlab, Spain). […]"}, "[2]": {"test_system": "Aβ deposition in APPsw mouse brain", "test": "Aβ in hippocampal tissues by ELISA and Thioflavin T staining", "format": "in vivo", "conditions": "versus APPsw control, FIG. 9", "from_the_text": "Given the data showing improved learning and memory of LMP2 inhibitor-treated mice and the role of Aβ deposition in memory dysfunction, we suspected that LMP2 inhibitors promote Aβ clearance in the brain of APPsw mice. To test this, we measured the expression levels of Aβ in hippocampal tissues isolated from the brains of APPsw mouse, using a ELISA-based assay and Thioflavin T (ThT) staining. […] Taken together, it appears that LMP2 inhibitors exert its anti-AD efficacy in these animal models independent of Aβ deposition. […] As a result, tau protein has become a prominent target for developing disease-modifying drugs. Given this, we wondered whether LMP2 inhibitors could block tau aggregation. To test this, we used HEK293-tau-BiFC cells to monitor the impacts of LMP2 inhibitors on tau aggregation.\nAβ1-42 levels were determined using specific ELISA Kit (Cusabio Biotech Co., Ltd., Wilmington, Del., USA). Experiments were performed according to each manufacturer's instructions. In brief, samples and standards were added into the pre-coated plate and incubated for 2 hours at 37° C. […] The absorbance was measured at 450 nm using a microplate reader (Sunrise™, TECAN, Switzerland) after adding stop solution.\nFrozen brain tissues were cut into 30 μm sections by using cryostat microtome (Leica CM1850; Leica Microsystems). […] The Thioflavin T staining was examined by using a fluorescence microscope."}}, "data": [{"molecule": "CC(=O)NCC(=O)N1CCC[C@H]1C(=O)N[C@@H](Cc1ccccc1)C(=O)N[C@@H](CC(C)C)C(=O)[C@@]1(C)CO1", "note": "[YU102]", "values": [{"measurement": "IC50", "setting": "X/β5", "result": "> 10", "unit": "µM"}, {"measurement": "cognitive deficits in the APPsw mice", "setting": "[1]", "result": "ameliorates cognitive deficits"}, {"measurement": "Aβ deposition", "setting": "[2]", "result": "no difference in Aβ deposition"}]}]}
